Experimental data: patent US20250353825A1, “CANNABICYCLOL DERIVATIVES AND PREPARATION METHODS THEREOF” (priority 2023, published 2025)
Read-outs that look alike come from different tables or passages of the source.

Columns and labels:
Assay type in all cases: cell-based
GSC-3 (3#-GSC) = experiment: MTS cell viability assay, glioblastoma stem cells GSC-3 (3#-GSC); conditions: for selective anti-glioma stem cell viability: judged in words from preliminary viability screening against 3#-GSC, 293T and U251
Description: (§1) Primary viability screening: (1) the synthesized compounds 3a to 13d were respectively dissolved in DMSO to prepare a 40 μg/mL cannabicyclol and cannabicyclol derivative solutions.
(§2) (2) A control group: a 200 μL DMSO solvent.
(§3) (3) The solutions of compounds 3a to 13d were diluted in a twofold gradient to obtain cannabicyclol and cannabicyclol derivative solutions at concentrations of 40 μg/mL, 20 μg/mL, 10 μg/mL, 5 μg/mL, 2.5 μg/mL, 1.25 μg/mL, and 0.625 μg/mL, and 0.3125 μg/mL, respectively.
(§4) (4) Three glioblastoma stem cells (GSC-3, GSC-12, and GSC-18), three pancreatic cancer cell-derived stem cells (PANC-1-CSC, BXPC-3-CSC, and ASPC1-CSC), three liver cancer cell-derived stem cells (HepG2-CSC, MHCC97H-CSC, and SMMC7721-CSC), HEK-293T cells, 16 tumor cells (U251, U87, T98G, PANC1, BXPC3, ASPC1, HepG2, MHCC97H, SMMC7721, PC3, SKOV3, MDA-MB231, A549, HCT116, HEC-1B, MKN28), and differentiated glioblastoma stem cells (GSC-3diff and GSC-12diff) derived from GSC-3 and GSC-12 (all of the cells were provided by the Laboratory of Tumor Animal Model Preparation and Application Research, West China Hospital, Sichuan University) were inoculated into a 96-well plate at a concentration of 2×10^4 cells/well, and 100 μL of culture medium was then added to each well;
(§5) (5) 2) HEK-293T, GSC-3diff, GSC-12diff, and the 16 tumor cells were added with DMEM, 10% FBS, and 1% double antibody culture medium. Cancer stem cells (CSCs) were added with serum-free stem cell medium consisting of DMEM/F12, EGF (20 ng/mL), bFGF (20 ng/mL), B27 (1×), and 1% double antibody culture medium.
(§6) (6) Inoculated cells were put into a cell culture incubator for 24 hours, and after the cells were well adhered to the wall, the culture medium in the 96-well plate was discarded.
(§7) (7) 200 μL cannabicyclol and cannabicyclol derivatives solutions at different concentrations were added to the cultured cells.
(§8) (8) The experiment was set up with 3 replicates.
(§9) (9) The 96-well plate was placed in a cell culture incubator, and incubation was continued at 37° C. and 5% CO2 for 72 hours. Then, 100 μL of cannabicyclol and cannabicyclol derivative solution per well was discarded (100 μL of DMSO solvent was discarded for the control group), and 20 μL of LMTS (CellTiter AQueous Non-Radioactive Cell Proliferation Assay, #G3581) was mixed and continued to be placed in the cell incubator for 2 hours of incubation.
(§10) (10) The absorbance value at 490 nm was measured on an enzyme labeling apparatus, and the IC50 value was calculated.

U251 = experiment: MTS cell viability assay, U251
Description: as §1, §2, §3, §4, §5, §6, §7, §8, §9, §10

[1] = MTS cell viability assay, HEK-293T (293T) normal cells; conditions: human
Description: as §1, §2, §3, §4, §5, §6, §7, §8, §9, §10

[2] = primary viability screening, 72 hours, MTS, test concentration not stated
[3] = HEK-293T (293T) normal cells, primary viability screening, 72 hours, MTS, test concentration not stated, read-out: Cell viability in 293T (%)

Compound	Cell viability in 3#-GSC (%) (GSC-3 (3#-GSC); 72 h)	Cell viability in U251 (%) (U251; human, 72 h)	viability at 72 h [1]	selective anti-glioma stem cell viability (GSC-3 (3#-GSC))	Cell viability in 3#-GSC (%) (GSC-3 (3#-GSC); [2])	Cell viability in U251 (%) (U251; [2])	viability at 72 h [1, 3]
CC12CCC3C1C(c1c(O)cc(-c4ccc(Cl)cc4)cc1O2)C3(C)C (stereo not shown) [Compound 3s]	49%	91%	64%	–	–	–	–
CCCCCc1cc(OC(C)=O)c2c(c1)OC1(C)CCC3C1C2C3(C)C (stereo not shown) [Compound 9b]	–	–	–	both the viability and selectivity were maintained	28%	82%	92%
CCCCCc1cc(O)c2c(c1)OC1(C)CCC3C(C)C2C31 (stereo not shown) [Compound 3u]	–	–	–	–	30%	72%	78%
CCCCCc1cc(OC(=O)c2ccco2)c2c(c1)OC1(C)CCC3C1C2C3(C)C (stereo not shown) [Compound 9j]	–	–	–	–	≥100%	≥100%	≥ 100%
CCCCCc1cc(O)c2c(c1)OC1(C)CCC3C(c4ccccc4)C2C31 (stereo not shown) [Compound 3x]	–	–	–	–	70%	77%	97%
CC12CCC3C1C(c1c(O)cc(-c4ccc(F)cc4)cc1O2)C3(C)C (stereo not shown) [Compound 3r]	43%	76%	45%	–	–	–	–
C=CCOc1cc(CCCCC)cc2c1C1C3C(CCC3(C)O2)C1(C)C (stereo not shown) [Compound 7a]	–	–	–	–	≥100%	81%	77%
C#CCOc1cc(CCCCC)cc2c1C1C3C(CCC3(C)O2)C1(C)C (stereo not shown) [Compound 7e]	–	–	–	–	≥100%	72%	75%
CCCc1cc(O)c2c(c1)OC1(C)CCC3C1C2C3(C)C (stereo not shown) [Compound 3d]	–	–	–	–	40%	71%	91%
CCCCCc1cc(OC(=O)c2ccncc2)c2c(c1)OC1(C)CCC3C1C2C3(C)C (stereo not shown) [Compound 9i]	–	–	–	–	91%	88%	91%
CC(C)(C)c1ccc(-c2cc(O)c3c(c2)OC2(C)CCC4C2C3C4(C)C)cc1 (stereo not shown) [Compound 3p]	67%	97%	≥ 100%	weak selective anti-glioma stem cell viability	–	–	–
C=CC(=O)Oc1cc(CCCCC)cc2c1C1C3C(CCC3(C)O2)C1(C)C (stereo not shown) [Compound 9f]	–	–	–	–	41%	64%	35%
Cc1cccc(-c2cc(O)c3c(c2)OC2(C)CCC4C2C3C4(C)C)c1 (stereo not shown) [Compound 3m]	42%	90%	≥ 100%	weak selective anti-glioma stem cell viability	–	–	–
CCCCCc1cc(OCCC)c2c(c1)OC1(C)CCC3C1C2C3(C)C (stereo not shown) [Compound 7d]	–	–	–	–	≥100%	82%	77%
CCCCCCc1cc(O)c2c(c1)OC1(C)CCC3C1C2C3(C)C (stereo not shown) [Compound 3f]	–	–	–	a certain degree of selective anti-glioma stem cell viability	20%	78%	18%
CCCCCCCc1cc(O)c2c(c1)OC1(C)CCC3C1C2C3(C)C (stereo not shown) [Compound 3g]	–	–	–	–	90%	79%	11%
CCCCCc1cc(OCC)c2c(c1)OC1(C)CCC3C1C2C3(C)C (stereo not shown) [Compound 7c]	–	–	–	–	≥100%	80%	79%
Cc1cc(O)c2c(c1)OC1(C)CCC3C1C2C3(C)C (stereo not shown) [Compound 3c]	≥100%	88%	≥ 100%	–	–	–	–
Cc1cc(C)cc(-c2cc(O)c3c(c2)OC2(C)CCC4C2C3C4(C)C)c1 (stereo not shown) [Compound 3o]	64%	88%	81%	–	–	–	–
